pIC50: −log10 of the molar value.
How the values were obtained:
[1] = test system: formalin-induced paw licking in mice; assay: Formalin-induced paw licking; assay type: in vivo, ICR mice; settings: mouse, in vivo, ip
Procedure: (§1) The ICR mice (18–22 g) used in this study were purchased from the Experimental Animal Center of SLac-kinda (Changsha, China). The animals were maintained at 20–25°C and freely allowed to standard rodent chow and water ad libitum. Ethical approval for in vivo experiments in animals was approved by the Animal Care and Use Committee (ACUC) at the Hunan Province Animal Management Office (HPAMO).
A formalin test was performed according to the previous method ([Owoyele et al., 2005]). […] The time spent licking the injected paw by each mouse was recorded by a digital stopwatch during Phase I (0–15 min post-injection) and Phase II (15–40 min post-injection).

hot plate test in mice = assay: Hot plate test; assay type: in vivo, ICR mice; settings: mouse, in vivo
Procedure: as §1
According to a previous method ([Meng et al., 2017]), a hot plate apparatus (model YLS-21A, Jinan, China) maintained at 55 ± 1°C, was used to measure the pain threshold of mice subjected to a thermal stimulus. Each female mouse was placed on hot plate to observe its pain response (hind-paw-licking or jumping) acted as its own control. The mice whose latent response times were shorter than 5 s or longer than 30 s were excluded from the test.

Nav1.4 = test system: Nav1.4; set-up: method as in Xiao et al., 2008; Goncalves et al., 2018; settings: skeletal isoform; ref Xiao et al., 2008; Goncalves et al., 2018; cited from earlier work

| Molecule | analgesic effect on Phase I compared to control [1] | paw licking time, Phase I [1] | paw licking time, Phase II [1] | latency time, hot plate (hot plate test in mice) | pIC50 (Nav1.4) |
| --- | --- | --- | --- | --- | --- |
| CN1CC[C@]23c4c5ccc(O)c4O[C@H]2[C@@H](O)C=C[C@H]3[C@H]1C5 [morphine, reference compound] | modest analgesia | 64.1 ± 8.5 s | 126.1 ± 19.8 s | 15.2 ± 1.9 s |  |
| HWTX-IV: spider peptide toxin; printed as μ-TRTX-Hhn1b (HWTX-IV) in b50, μ-TRTX-Hs2a (HWTX-IV) in b51 |  |  |  |  | 6.40 |

— article PMC6198068, “Discovery of a Novel Nav1.7 Inhibitor From Cyriopagopus albostriatus Venom With Potent Analgesic Efficacy” (Frontiers in Pharmacology, 2018)
